Article PMC3914206

Key:
Type in all cases: binding
panel of 442 kinases [1] = target: T1, panel of 442 kinases (Homo sapiens, UniProt P06239); settings: Compound Concentration 10 µM
T1 construct: purchased KINOMEscan
Source text: (§1) We assessed the selectivity of members of this scaffold using the KINOMEscan methodology across a near comprehensive panel of 442 kinases [[18,27]].

panel of 442 kinases [2] = target: T2, panel of 442 kinases (Homo sapiens, UniProt P54646); settings: Compound Concentration 10 µM
T2 construct: purchased KINOMEscan
T2 sequence (P54646 whole entry): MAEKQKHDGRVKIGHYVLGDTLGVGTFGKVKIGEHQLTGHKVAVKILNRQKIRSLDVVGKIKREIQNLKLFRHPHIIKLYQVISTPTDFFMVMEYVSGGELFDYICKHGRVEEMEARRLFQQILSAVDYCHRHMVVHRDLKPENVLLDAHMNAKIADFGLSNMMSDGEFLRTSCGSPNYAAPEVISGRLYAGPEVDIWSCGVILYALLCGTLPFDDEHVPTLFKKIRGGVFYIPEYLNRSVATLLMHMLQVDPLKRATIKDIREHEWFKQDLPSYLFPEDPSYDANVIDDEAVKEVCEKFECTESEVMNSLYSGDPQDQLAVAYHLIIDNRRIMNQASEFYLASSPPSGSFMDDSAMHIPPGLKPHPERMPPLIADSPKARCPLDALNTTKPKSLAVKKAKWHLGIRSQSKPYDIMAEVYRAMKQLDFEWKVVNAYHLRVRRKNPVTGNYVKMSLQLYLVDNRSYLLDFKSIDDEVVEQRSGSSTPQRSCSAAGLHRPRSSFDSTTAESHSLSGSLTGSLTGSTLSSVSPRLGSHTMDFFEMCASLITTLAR
Source text: as §1

panel of 442 kinases [3] = target: T3, panel of 442 kinases (Homo sapiens, UniProt Q7L7X3); settings: kinase TAOK1; compound concentration 10 µM
T3 construct: purchased KINOMEscan
T3 sequence (Q7L7X3 1-1001): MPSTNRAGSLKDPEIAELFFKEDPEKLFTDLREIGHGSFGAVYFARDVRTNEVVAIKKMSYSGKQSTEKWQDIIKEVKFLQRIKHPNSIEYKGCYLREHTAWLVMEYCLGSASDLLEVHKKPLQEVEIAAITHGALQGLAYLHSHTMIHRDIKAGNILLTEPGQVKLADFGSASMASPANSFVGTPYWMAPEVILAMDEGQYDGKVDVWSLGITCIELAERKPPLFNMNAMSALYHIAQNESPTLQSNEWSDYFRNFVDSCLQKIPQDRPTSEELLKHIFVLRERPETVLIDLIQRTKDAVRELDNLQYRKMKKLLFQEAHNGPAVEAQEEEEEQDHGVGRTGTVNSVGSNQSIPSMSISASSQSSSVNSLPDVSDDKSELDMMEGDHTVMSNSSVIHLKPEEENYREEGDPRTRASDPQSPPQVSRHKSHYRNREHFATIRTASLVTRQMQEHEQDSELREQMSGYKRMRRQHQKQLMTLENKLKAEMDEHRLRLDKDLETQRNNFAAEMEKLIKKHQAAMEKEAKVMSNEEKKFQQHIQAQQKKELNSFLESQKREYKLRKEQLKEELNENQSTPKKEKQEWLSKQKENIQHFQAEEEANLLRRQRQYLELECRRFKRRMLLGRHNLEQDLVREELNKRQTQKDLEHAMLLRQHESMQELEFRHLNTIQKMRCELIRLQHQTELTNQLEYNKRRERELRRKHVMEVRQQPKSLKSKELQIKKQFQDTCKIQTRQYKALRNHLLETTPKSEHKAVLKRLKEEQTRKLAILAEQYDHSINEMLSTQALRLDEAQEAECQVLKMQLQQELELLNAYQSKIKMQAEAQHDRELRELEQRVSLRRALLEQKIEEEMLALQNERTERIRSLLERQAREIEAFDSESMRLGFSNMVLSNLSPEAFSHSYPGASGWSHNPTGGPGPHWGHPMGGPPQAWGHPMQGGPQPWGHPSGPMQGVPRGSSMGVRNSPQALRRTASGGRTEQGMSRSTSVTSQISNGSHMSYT
Source text: as §1

T1 sequence (P06239 whole entry): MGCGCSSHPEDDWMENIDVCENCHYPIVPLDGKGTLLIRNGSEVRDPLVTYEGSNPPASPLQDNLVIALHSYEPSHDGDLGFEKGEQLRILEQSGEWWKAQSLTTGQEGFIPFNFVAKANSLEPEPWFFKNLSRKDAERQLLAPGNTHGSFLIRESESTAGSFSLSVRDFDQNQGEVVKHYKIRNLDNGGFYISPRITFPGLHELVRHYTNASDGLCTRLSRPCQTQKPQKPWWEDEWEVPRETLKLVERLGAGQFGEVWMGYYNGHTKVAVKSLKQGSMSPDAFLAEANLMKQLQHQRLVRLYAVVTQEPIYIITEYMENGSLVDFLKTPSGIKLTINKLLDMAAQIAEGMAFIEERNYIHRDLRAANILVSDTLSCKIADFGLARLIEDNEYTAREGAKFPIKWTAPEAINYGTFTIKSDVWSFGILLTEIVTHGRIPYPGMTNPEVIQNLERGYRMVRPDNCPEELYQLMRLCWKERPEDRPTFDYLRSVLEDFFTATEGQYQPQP

SMILES	KINOMEscan: LCK (panel of 442 kinases [1])	KINOMEscan: AMPK-alpha2 (panel of 442 kinases [2])	% Ctrl, TAOK1 (panel of 442 kinases [3])
COc1cc(C(=O)N2CCC(N3CCN(C)CC3)CC2)ccc1Nc1ncc2c(n1)N(C1CCCC1)c1ccccc1C(=O)N2C [Compound 25, 11-cyclopentyl-2-((2-methoxy-4-(4-(4-methylpiperazin-1-yl)piperidine-1-carbonyl)phenyl)amino)-5-methyl-5H-benzo[e]pyrimido[5,4-b][1,4]diazepin-6(11H)-one]	66	76	51 % Ctrl
COc1cc(C(=O)N2CCC(N3CCN(C)CC3)CC2)ccc1Nc1ncc2c(n1)N(C)c1ccccc1C(=O)N2C [15 (LRRK2-IN-1)]	100	66	28 % Ctrl
CCOc1cc(C(=O)N2CCC(N3CCN(C)CC3)CC2)ccc1Nc1ncc2c(n1)N(C1CCCC1)c1ccccc1C(=O)N2C [Compound 26]	100	100	79 % Ctrl
